Earlier results on three compounds are cited in US7125886B2, “5-HT3 receptor antagonists and methods of use” (Aryx Therapeutics, priority 2002, dated 2006).

Series [1] deals with T1, 5-HT3 receptor (Homo sapiens, UniProt P46098).
T1 sequence (P46098 24-478): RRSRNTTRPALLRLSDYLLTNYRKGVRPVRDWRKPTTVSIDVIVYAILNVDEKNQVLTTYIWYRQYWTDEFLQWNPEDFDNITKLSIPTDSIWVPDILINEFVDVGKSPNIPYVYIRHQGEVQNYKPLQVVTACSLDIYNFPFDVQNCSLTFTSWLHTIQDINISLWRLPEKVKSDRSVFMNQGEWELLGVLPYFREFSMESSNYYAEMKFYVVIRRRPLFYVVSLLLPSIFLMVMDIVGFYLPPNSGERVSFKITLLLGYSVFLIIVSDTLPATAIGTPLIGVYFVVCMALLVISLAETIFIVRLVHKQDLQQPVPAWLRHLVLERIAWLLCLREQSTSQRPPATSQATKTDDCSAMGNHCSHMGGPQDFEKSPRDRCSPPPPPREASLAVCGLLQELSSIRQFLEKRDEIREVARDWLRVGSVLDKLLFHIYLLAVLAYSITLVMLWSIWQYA

The conditions of series [2]: at least 12 weeks of treatment, patients with IBS.
The conditions of series [3]: up to 3 months of treatment; versus placebo and mebeverine.
For series [4] the following is noted: received by the FDA.

As for `Cc1[nH]cnc1CN1CCc2c(c3cccc(O)c3n2C)C1=O` [6-Hydroxy-alosetron], the “potency relative to alosetron” value in series [1] is listed as “twice as potent as alosetron”.
As for `Cc1[nH]cnc1CN1CCc2c(c3cccc(O[C@@H]4O[C@H](C(=O)O)[C@@H](O)[C@H](O)[C@H]4O)c3n2C)C1=O` [6-OH-alosetron glucuronide], the “5-HT3 receptor binding affinity” value in series [1] is “potent”.
Turning to `Cc1[nH]cnc1CN1CCc2c(c3ccccc3n2C)C1=O` [Alosetron, 2,3,4,5-tetrahydro-5-methyl-2-[(5-methyl-1H-imidazol-4-yl)methyl]-1H-pyrido [4,3-b]indol-1-one], the “constipation, patients with adverse event” value in series [2] is 28%. The “improving perception of visceral pain, spasms and diarrhea” value in series [3] is recorded as “significantly superior”. Moreover, under “females compared with males”, the “greater drug exposure in females than males” value was 60% and the “mean peak plasma concentration higher in females” value is 45–100%. For the same compound, the half-life (in general, how long it takes for the measured level to halve) (in vivo) was 1.5 h. In addition, the oral bioavailability result (oral) is “approximately 60%”. For the same compound, the “reports of deaths associated with alosetron” value in series [4] was 3.
